Assay results: patent US8492087B2, “Method of judging risk for onset of drug-induced granulocytopenia” (Otsuka Pharmaceutical Co., Ltd., priority 2003, dated 2013)

Test system: human IRS-2 gene
Experiment: Association analysis of human IRS-2 gene polymorphisms and granulocytopenia induced by vesnarinone administration
Type: in vivo
Settings: subjects who had received vesnarinone
From the text: In order to find genetic polymorphisms in relation to granulocytopenia attributed to drug administration, there were employed subjects who had received vesnarinone (3,4-dihydro-6-[4-(3,4-dimethoxybenzoy1)-1-piperaziny1]-2(1H)-quinoline).
Among subjects who had received vesnarinone, had orally agreed to cooperate with investigation of the cause for vesnarinone-induced granulocytopenia between May 1991 and October 1996, and had accepted to provide a blood sample, there were employed 84 subjects (male/female ratio=1.21:1) who had again agreed in writing to cooperate with genetic analysis according to ethical guidelines between July 2001 and December 2001. Genomic DNA was extracted from a blood sample (or a cell sample derived therefrom) of each of the subjects who had again agreed described above. through a common method, and was employed for the below-described tests.
Among the subjects, subjects having leukocytes or neutrophils which were decreased to half or less following vesnarinone administration, and having the number of leukocytes of 2,000/mm^3 or less, or the number of neutrophils of 1,000/mm^3 or less were classified as “subjects with granulocytopenia”.
Each of these groups was further classified into two groups according to sex, to thereby become four subgroups; i.e., a group of 13 male with granulocytopenia (group A), a group of 17 female with granulocytopenia (group B), a group of 33 male without granulocytopenia (group C), and a group of 21 female without granulocytopenia (group D).
The allele frequencies in the group of subjects with granulocytopenia were compared to that of subjects without granulocytopenia by the contingency χ square test. The odds ratio was estimated through the Brown method (Brown, C. C., Am. J. Epidemiol., 113: 474-480 (1981)). The 95% confidence interval of odds ratio was calculated through the Woolf method.
In order to determine the genotype distribution, all polymorphisms identified by the discovery above were analyzed in the all subjects described in Example 1 by amplifying the regions containing the polymorphisms with primer sets and sequencing the PCR products under the condition described above.
In addition to the statistical methods employed in Example 1, a pair-wise linkage disequilibrium coefficient (D′=D/Dmax or D/Dmin) was calculated by use of the method by Thompson, et al. (Thompson, E. A., et al., Am. J. Hum. Genet. 42: 113-124 (1988))

Compound: COc1ccc(C(=O)N2CCN(c3ccc4c(c3)CCC(=O)N4)CC2)cc1OC [vesnarinone, 3,4-dihydro-6-[4-(3,4-dimethoxybenzoy1)-1-piperaziny1]-2(1H)-quinoline]
- subjects with agranulocytosis N (%) (IRS-2 A15870G genotype AA, total 27): 10 (37.0) N (%)
- subjects without agranulocytosis N (%) (IRS-2 A15870G genotype AA, total 49): 36 (73.5) N (%)
- subjects with agranulocytosis N (%) (IRS-2 A15870G genotype AG + GG, total 27): 17 (63.0) N (%)
- subjects without agranulocytosis N (%) (IRS-2 A15870G genotype AG + GG, total 49): 13 (26.5) N (%)
- subjects with agranulocytosis N (%) (IRS-2 A29793G genotype AA, total 30): 11 (36.7) N (%)
- subjects without agranulocytosis N (%) (IRS-2 A29793G genotype AA, total 53): 39 (73.6) N (%)
- subjects with agranulocytosis N (%) (IRS-2 A29793G genotype AG + GG, total 30): 19 (63.3) N (%)
- subjects without agranulocytosis N (%) (IRS-2 A29793G genotype AG + GG, total 53): 14 (26.4) N (%)
- subjects with agranulocytosis N (%) (IRS-2 A-1164C genotype AA, total 30): 8 (26.7) N (%)
- subjects without agranulocytosis N (%) (IRS-2 A-1164C genotype AA, total 49): 29 (59.2) N (%)
- subjects with agranulocytosis N (%) (IRS-2 A-1164C genotype AC + CC, total 30): 22 (73.3) N (%)
- subjects without agranulocytosis N (%) (IRS-2 A-1164C genotype AC + CC, total 49): 20 (40.8) N (%)
- subjects with agranulocytosis N (%) (IRS-2 AT-2510del genotype AT, total 29): 7 (24.1) N (%)
- subjects without agranulocytosis N (%) (IRS-2 AT-2510del genotype AT, total 49): 28 (57.1) N (%)
- subjects with agranulocytosis N (%) (IRS-2 AT-2510del genotype ATdel + del, total 29): 22 (75.9) N (%)
- subjects without agranulocytosis N (%) (IRS-2 AT-2510del genotype ATdel + del, total 49): 21 (42.9) N (%)
- subjects with agranulocytosis N (%) (IRS-2 C31532del genotype CC, total 27): 9 (33.3) N (%)
- subjects without agranulocytosis N (%) (IRS-2 C31532del genotype CC, total 48): 34 (70.8) N (%)
- subjects with agranulocytosis N (%) (IRS-2 C31532del genotype Cdel + del, total 27): 18 (66.7) N (%)
- subjects without agranulocytosis N (%) (IRS-2 C31532del genotype Cdel + del, total 48): 14 (29.2) N (%)
- subjects with agranulocytosis N (%) (IRS-2 C-4587A genotype CA + AA, total 28): 21 (75.0) N (%)
- subjects without agranulocytosis N (%) (IRS-2 C-4587A genotype CA + AA, total 49): 20 (40.8) N (%)
- subjects with agranulocytosis N (%) (IRS-2 C-4587A genotype CC, total 28): 7 (25.0) N (%)
- subjects without agranulocytosis N (%) (IRS-2 C-4587A genotype CC, total 49): 29 (59.2) N (%)
